Blank lines part the entries; values can stand above or below the molecule they belong to. Calls of active or inactive are those of the source. The calls are words filed in the database; no cut-off is given here.
Experiments:
[1] = target: T1, Transient receptor potential cation channel subfamily M member 7 (Mus musculus, UniProt Q923J1); type: cell-based, HEK293
Description: Inhibition of FLAG-tagged mouse TRPM7 transfected in HEK293 cells assessed as inhibition of channel-mediated Mn2+ influx incubated for ~15 mins and measured for 90 secs by Fura-2-dye based fluorescence analysis

[2] = target: T1, Transient receptor potential cation channel subfamily M member 7; experiment: Inhibition of HA-tagged mouse TRPM7 transfected in HEK293 cells assessed as inhibition of channel current by whole cell patch clamp analysis; type: cell-based
[3] = target: T1, Transient receptor potential cation channel subfamily M member 7; experiment: Inhibition of mouse TRPM7 transfected in HEK293T cells assessed as inhibition of channel current in absence of intracellular Mg2+ by whole cell patch clamp analysis; type: cell-based
[4] = target: T1, Transient receptor potential cation channel subfamily M member 7; experiment: Inhibition of mouse TRPM7 transfected in HEK293 cells assessed as inhibition of channel current in presence of 300 uM free intracellular Mg2+ by whole cell patch clamp analysis; type: cell-based
[5] = target: T1, Transient receptor potential cation channel subfamily M member 7; experiment: Inhibition of mouse TRPM7 transfected in HEK293 cells assessed as inhibition of channel current in absence of intracellular Mg2+ by whole cell patch clamp analysis; type: cell-based
[6] = target: T1, Transient receptor potential cation channel subfamily M member 7; experiment: Inhibition of mouse TRPM7 transfected in HEK293 cells assessed as inhibition of channel current in presence of 780 uM free intracellular Mg2+ by whole cell patch clamp analysis; type: cell-based
[7] = target: T2, Transient receptor potential cation channel subfamily M member 7 (Homo sapiens, UniProt Q96QT4); experiment: Inhibition of human TRPM7 transfected in HEK293 cells assessed as inhibition of channel current by whole cell patch clamp analysis; type: cell-based
[8] = target: T2, Transient receptor potential cation channel subfamily M member 7; experiment: Covalent inhibition of human TRPM7 transfected in Tet-inducible HEK293-T-REx cells assessed as inhibition of channel current at 10 uM incubated for 50 to 150 secs by whole cell patch clamp analysis; type: cell-based; settings: time 50-150 sec
[9] = 1-Octanol/water partition coefficient, log P of the compound by LC-MS analysis; type: physicochemical
[10] = target: T2, Transient receptor potential cation channel subfamily M member 7; experiment: Irreversible covalent inhibition of human TRPM7 transfected in Tet-inducible HEK293-T-REx cells assessed as inhibition of channel current at 10 uM incubated for 50 to 150 secs and measured for 10 mins after drug wash-out by whole cell patch clamp analysis; type: cell-based; settings: time 50-150 sec
[11] = target: T1, Transient receptor potential cation channel subfamily M member 7; experiment: Inhibition of mouse TRPM7 expressed in HEK293 cells assessed as inhibition of channel current in presence of 700 uM intracellular Mg2+ by whole cell patch clamp analysis; type: cell-based
[12] = target: T2, Transient receptor potential cation channel subfamily M member 7; experiment: Inhibition of human TRPM7 transfected in Tet-inducible HEK293-T-REx cells assessed as inhibition of channel current in presence of 780 uM intracellular Mg2+ by whole cell patch clamp analysis; type: cell-based

T2 sequence (Q96QT4 whole entry): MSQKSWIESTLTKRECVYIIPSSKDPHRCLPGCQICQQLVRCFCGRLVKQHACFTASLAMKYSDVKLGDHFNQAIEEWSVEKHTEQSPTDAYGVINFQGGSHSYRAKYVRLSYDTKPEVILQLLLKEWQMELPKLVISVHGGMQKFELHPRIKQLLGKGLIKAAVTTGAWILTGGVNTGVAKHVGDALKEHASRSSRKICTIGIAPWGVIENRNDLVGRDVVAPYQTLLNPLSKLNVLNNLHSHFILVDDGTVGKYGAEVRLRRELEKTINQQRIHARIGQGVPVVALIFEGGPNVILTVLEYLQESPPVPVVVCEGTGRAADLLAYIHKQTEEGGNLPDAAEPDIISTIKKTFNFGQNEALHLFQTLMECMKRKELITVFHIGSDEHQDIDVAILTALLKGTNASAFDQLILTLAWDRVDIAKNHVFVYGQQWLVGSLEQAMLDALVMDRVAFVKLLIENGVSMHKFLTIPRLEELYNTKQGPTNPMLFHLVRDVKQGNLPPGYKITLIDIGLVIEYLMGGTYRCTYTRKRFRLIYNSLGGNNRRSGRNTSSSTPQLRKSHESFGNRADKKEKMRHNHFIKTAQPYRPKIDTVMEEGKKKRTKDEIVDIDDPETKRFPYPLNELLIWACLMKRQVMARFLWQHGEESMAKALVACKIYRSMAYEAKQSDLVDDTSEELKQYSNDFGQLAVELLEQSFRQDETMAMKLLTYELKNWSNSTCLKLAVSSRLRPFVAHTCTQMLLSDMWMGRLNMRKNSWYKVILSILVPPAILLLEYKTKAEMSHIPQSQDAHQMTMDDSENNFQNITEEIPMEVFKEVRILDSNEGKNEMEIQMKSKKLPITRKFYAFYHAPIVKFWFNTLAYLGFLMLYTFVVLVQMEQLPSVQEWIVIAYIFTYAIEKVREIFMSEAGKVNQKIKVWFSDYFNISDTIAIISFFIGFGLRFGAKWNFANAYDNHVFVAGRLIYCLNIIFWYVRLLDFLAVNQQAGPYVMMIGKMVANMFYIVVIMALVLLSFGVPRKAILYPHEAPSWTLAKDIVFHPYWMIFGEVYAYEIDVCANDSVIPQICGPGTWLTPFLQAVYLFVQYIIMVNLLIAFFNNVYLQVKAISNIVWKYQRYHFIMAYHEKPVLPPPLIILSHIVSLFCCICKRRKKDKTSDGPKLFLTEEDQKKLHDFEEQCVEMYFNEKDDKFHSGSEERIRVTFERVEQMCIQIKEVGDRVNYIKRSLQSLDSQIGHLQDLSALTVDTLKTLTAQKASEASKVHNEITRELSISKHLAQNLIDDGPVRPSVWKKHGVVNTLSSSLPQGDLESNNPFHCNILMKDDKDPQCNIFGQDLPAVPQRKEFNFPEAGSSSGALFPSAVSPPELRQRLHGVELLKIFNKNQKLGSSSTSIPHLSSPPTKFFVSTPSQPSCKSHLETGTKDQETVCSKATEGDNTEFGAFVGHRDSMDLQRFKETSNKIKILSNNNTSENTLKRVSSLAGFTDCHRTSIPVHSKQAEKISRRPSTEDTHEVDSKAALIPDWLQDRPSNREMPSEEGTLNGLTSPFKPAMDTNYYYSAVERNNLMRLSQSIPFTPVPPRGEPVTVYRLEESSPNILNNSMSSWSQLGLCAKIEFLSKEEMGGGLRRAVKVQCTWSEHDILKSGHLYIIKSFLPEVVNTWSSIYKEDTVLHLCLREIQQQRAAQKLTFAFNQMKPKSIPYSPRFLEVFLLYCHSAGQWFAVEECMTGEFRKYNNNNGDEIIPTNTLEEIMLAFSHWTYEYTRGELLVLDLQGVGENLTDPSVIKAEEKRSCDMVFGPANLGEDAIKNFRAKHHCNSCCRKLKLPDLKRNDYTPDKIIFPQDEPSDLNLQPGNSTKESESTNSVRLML
T1 sequence (Q923J1 whole entry): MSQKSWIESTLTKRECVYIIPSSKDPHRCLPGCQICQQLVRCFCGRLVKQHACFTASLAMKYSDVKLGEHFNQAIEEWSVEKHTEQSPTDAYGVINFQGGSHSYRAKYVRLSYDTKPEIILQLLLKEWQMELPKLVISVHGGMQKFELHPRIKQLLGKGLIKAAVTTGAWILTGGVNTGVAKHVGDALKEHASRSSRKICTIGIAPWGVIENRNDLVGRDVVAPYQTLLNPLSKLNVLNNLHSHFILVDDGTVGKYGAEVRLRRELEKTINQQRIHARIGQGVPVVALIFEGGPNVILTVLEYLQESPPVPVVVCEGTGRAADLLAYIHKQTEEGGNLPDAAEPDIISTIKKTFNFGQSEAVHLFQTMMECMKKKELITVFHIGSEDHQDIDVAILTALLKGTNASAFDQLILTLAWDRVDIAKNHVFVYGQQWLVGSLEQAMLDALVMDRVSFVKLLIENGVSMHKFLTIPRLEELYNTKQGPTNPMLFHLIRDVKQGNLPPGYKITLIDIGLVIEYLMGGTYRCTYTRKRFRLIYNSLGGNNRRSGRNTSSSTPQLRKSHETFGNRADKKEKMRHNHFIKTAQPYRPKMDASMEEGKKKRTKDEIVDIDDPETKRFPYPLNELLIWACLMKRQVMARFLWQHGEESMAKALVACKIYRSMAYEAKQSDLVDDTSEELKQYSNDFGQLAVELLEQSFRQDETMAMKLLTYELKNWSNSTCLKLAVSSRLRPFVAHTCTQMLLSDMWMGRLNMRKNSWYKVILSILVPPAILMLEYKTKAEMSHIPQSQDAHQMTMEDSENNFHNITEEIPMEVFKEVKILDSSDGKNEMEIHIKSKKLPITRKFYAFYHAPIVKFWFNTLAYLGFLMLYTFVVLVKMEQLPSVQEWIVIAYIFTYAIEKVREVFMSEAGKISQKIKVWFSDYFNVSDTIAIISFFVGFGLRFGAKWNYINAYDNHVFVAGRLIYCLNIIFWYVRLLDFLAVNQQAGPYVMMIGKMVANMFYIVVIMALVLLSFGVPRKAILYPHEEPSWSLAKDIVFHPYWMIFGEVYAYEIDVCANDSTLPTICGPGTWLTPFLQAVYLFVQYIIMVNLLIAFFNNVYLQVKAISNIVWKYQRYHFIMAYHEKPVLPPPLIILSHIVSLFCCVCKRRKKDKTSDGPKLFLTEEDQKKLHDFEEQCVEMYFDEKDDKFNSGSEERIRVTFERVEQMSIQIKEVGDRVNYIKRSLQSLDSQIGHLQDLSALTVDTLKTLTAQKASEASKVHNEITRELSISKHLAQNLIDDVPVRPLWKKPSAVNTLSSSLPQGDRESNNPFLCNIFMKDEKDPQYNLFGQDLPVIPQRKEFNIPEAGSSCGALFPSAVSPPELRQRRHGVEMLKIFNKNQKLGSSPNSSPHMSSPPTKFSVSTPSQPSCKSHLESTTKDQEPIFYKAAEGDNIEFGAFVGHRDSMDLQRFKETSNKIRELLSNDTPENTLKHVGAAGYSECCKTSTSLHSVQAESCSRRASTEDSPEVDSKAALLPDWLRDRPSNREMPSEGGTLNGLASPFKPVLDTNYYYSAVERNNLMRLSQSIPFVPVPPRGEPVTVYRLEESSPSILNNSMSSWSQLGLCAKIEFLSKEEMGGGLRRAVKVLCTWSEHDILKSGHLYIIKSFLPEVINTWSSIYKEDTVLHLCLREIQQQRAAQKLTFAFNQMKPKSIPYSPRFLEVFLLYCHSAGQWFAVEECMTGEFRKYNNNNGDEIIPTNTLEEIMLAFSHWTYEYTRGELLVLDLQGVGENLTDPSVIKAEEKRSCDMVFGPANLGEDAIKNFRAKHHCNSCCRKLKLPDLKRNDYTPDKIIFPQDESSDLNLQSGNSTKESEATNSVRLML

SMILES: NCCOB(c1ccccc1)c1ccccc1
IC50 [1]: 22 µM

IC50 [2]: 0.72 µM
SMILES: CCCCCCCCc1ccc(CCC(N)(CO)CO)cc1 [FINGOLIMOD]

IC50 [1]: 20 µM
SMILES: C=C1CC[C@H](OC(C)=O)C(=C)CC[C@@H]2C([C@H](C/C=C(\C)COC(C)=O)OC(C)=O)=CO[C@H](OC(C)=O)[C@@H]12

IC50 [1]: > 150 µM
SMILES: C=C1CC[C@@H]2O[C@@]2(C)CC[C@@H]2C(C=O)=C[C@@H](/C=C(\C)COC(C)=O)[C@H](O)[C@@H]12

IC50 [1]: > 130 µM
SMILES: C=C1CC/C=C(\C)CC[C@@H]2C([C@@H](O)C/C=C(\C)COC(C)=O)=CO[C@H](OC(C)=O)[C@@H]12

IC50 [3]: 0.11 µM
SMILES: N#Cc1ccc(COC[C@H]2O[C@@H](n3c(NCc4ccc(Cl)c(Cl)c4)nc4c(N)ncnc43)[C@H](O)[C@@H]2O)cc1

IC50 [1]: 33 µM
SMILES: C=C1CC[C@@H]2O[C@@]2(C)CC[C@@H]2C([C@H](C/C=C(\C)COC(C)=O)OC(C)=O)=CO[C@H](OC(C)=O)[C@@H]12

IC50 [4]: 5.9 µM | IC50 [5]: 1.6 µM | IC50 [6]: 3.9 µM
SMILES: c1ccc2c(c1)CCC[C@H]2Nc1nc2ccccc2[nH]1

SMILES: CCCCCc1cc(O)c(C/C=C(\C)CCC=C(C)C)c(O)c1C(=O)O [CANNABIGEROLIC ACID]
IC50 [7]: 2.7 µM

inhibition [8]: Active | IC50 [1]: 20 µM | logP [9]: 3.8 | inhibition [10]: Active | IC50 [11]: 0.016 µM
SMILES: C=C1CC/C=C(\C)CC[C@@H]2C([C@H](C/C=C(\C)COC(C)=O)OC(C)=O)=CO[C@H](OC(C)=O)[C@@H]12

IC50 [1]: > 150 µM
SMILES: C=C1CC/C=C(\C)CC[C@H]2[C@H]1[C@H]1O[C@H](O)[C@]2(/C=C/C=C(\C)COC(C)=O)O1

IC50 [1]: 13 µM
SMILES: C=C1[C@@H]2[C@@H](OC(C)=O)OC=C([C@H](C/C=C(\C)COC(C)=O)OC(C)=O)[C@H]2CC[C@]2(C)O[C@H]2C[C@H]1O

IC50 [1]: 12 µM | IC50 [12]: 0.09 µM
SMILES: C=C1[C@@H]2[C@@H](OC(C)=O)OC=C([C@H](C/C=C(\C)COC(C)=O)OC(C)=O)[C@H]2CC/C(C)=C/C[C@H]1O
